Reference: BindingDB's records for patent US20250313535 (Dice Molecules Sv, 2025)
pIC50: −log10 of the molar value.

Molecular target: Integrin alpha-4/beta-7 (Homo sapiens, UniProt P13612+P26010)
Test: Inhibition of α4β7 and α4β1 Integrins
Method: MAdCAM (R&D Systems, 0.1 ug) was diluted in 50 μL PBS, added to each well of an opaque ELISA plate (Thermo), and incubated overnight at 4° C. Coated plates were washed once with PBS and then blocked with 200 μL of assay buffer (10 mM HEPES, 150 mM NaCl, 1 mM MnCl2, 0.1 mM CaCl2), 1% BSA) for 1 hour at 37° C. and 5% CO2. After incubation, buffer was aspirated from the plates and 50 μL of fresh assay buffer is added. Compounds were added by a compouns dispenser (Tecan) and DMSO concentration was normalized to 1% across each plate. 50 μL of RPMI-8866 cells (2×10^6 per mL) were added to each well and the plates were incubated for 1 hour at 37° C. and 5% CO2. After incubation, plates were allowed to cool to RT for 10 minutes before being washed four times in assay buffer by an automated plate washer (BioTek). After washing, 100 μL of a 1:1 mixture of assay buffer and CellTiter GLO 2.0 reagent (Promega) were added to each well. Plates were mixed for 2 minutes at 1000 rpm and then allowed to incubate an additional 10 minutes before reading out luminescence on a Tecan Spark plate reader. Raw data was converted to percent inhibition based on DMSO only and control compound wells, and curves were analyzed by 4-parameter fit within Dotmatics software.

Sequence of Integrin alpha-4/beta-7 (P13612 whole entry): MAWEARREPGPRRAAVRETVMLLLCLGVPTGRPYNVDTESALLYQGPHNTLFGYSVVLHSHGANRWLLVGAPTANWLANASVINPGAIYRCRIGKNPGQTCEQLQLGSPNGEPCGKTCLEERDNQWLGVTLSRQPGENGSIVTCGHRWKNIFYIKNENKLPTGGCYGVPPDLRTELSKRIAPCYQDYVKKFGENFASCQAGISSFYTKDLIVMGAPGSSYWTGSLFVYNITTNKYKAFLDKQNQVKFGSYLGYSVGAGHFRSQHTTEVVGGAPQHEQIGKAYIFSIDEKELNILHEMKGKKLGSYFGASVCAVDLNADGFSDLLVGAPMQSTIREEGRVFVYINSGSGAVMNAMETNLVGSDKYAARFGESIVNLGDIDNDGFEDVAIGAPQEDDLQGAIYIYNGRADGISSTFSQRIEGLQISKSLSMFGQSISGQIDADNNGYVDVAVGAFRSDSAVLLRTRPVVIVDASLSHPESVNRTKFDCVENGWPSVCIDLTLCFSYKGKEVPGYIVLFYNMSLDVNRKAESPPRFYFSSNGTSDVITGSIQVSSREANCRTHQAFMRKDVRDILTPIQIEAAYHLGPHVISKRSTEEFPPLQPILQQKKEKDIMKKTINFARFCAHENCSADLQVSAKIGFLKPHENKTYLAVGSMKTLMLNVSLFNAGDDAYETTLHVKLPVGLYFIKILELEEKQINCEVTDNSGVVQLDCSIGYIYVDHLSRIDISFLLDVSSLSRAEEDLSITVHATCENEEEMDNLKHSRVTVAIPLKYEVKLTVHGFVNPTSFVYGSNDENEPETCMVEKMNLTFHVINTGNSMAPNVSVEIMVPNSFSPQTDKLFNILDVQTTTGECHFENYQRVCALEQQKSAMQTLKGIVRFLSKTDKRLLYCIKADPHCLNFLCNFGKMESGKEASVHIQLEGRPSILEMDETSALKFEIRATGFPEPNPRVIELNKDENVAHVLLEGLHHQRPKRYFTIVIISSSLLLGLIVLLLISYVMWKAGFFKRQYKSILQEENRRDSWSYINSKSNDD
Sequence of Integrin alpha-4/beta-7 (P26010 whole entry): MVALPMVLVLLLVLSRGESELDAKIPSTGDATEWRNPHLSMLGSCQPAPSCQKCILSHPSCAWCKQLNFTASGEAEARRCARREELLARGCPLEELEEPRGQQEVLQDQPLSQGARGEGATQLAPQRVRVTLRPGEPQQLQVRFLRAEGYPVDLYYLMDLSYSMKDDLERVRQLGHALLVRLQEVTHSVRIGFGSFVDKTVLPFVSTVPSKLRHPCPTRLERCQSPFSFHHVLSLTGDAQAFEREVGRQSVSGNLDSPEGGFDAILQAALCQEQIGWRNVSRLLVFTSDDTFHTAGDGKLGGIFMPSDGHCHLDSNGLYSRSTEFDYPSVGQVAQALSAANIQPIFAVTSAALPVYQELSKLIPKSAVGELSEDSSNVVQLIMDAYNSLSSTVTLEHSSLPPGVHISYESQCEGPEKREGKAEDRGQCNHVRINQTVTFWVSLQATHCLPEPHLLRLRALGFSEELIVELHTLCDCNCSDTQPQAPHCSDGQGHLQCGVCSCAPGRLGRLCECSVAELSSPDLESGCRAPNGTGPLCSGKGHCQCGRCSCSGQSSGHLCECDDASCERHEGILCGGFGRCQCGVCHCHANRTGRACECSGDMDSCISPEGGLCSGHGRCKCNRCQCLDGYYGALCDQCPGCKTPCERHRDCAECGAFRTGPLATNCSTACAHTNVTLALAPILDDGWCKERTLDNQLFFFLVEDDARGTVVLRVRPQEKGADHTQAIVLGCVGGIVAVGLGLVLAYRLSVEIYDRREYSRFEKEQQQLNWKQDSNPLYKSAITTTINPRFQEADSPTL

pIC50	SMILES
> 8.00	Cn1ccc(C(F)(F)F)c(-c2nccc3c(C[C@H](NC(=O)c4c(F)cc(N(CC(F)(F)F)CC(F)(F)F)cc4F)C(=O)O)cccc23)c1=O [US20250313535, Compound 237]
< 7.00	Cn1c(=O)c(-c2cccc3c(C[C@H](NC(=O)c4c(F)cc(NC5CCC(F)(F)C5)cc4F)C(=O)O)cccc23)c(C(F)(F)F)c2ccccc21 (some centres not stated) [US20250313535, Compound 386]
